Data published in PMC5318888, “SAMHD1 enhances nucleoside-analogue efficacy against HIV-1 in myeloid cells” (Scientific Reports, 2017).

Tests used:
SAMHD1 = biological target: T1, SAMHD1 (Homo sapiens, UniProt Q9Y3Z3); parameters: method as in PMID 25331707; details: previous in vitro assays; cited from earlier work
T1 construct: The final concentrations were 100 nM SAMHD1(115–626), 10 nM Ppx1; strep-tag; made in house

HIV-1-GFP [1] = assay: microbe, parasite or virus in culture; format: cell-based
Description: H9 and Jurkat cells (6 × 10^5 cells/mL) were treated with increasing concentrations of nucleoside analogues (0–200 μM; except CFB, 0–1.6 μM) and incubated for 4 h at 37 °C in 5% CO2. Cells were then infected with HIV-1-GFP by spinoculation at 800 × g for 90 min in the presence of 1 μg/mL polybrene, and further incubated at 37 °C in 5% CO2 for 72 h. Undifferentiated U937 and THP-1 (PMA^−) cells (6 × 10^5 cells/mL) were treated with increasing concentrations of nucleoside analogues (0–200 μM; except CFB, 0–1.6 μM) and incubated at 37 °C in 5% CO2 for 48 h. Cells were then infected with HIV-1-GFP by spinoculation at 800 × g for 90 min in the presence of 1 μg/mL polybrene, and further incubated at 37 °C in 5% CO2 for 72 h. Non-dividing U937 and THP-1 (PMA^+) cells (6 × 10^5 cells/mL) were differentiated by addition of 100 nM PMA (PMA^+) for 48 h and treated with increasing concentrations of nucleoside analogues as described above. Cells were then infected with HIV-1-GFP in the presence of 1 μg/mL polybrene and further incubated at 37 °C in 5% CO2 for 72 h. The percentage of GFP^+cells was determined by one-colour flow cytometry using a Fortessa X20 analyser (BD Biosciences) and the data analysed using the FlowJo software suite.
(§1) Non-ambiguous values were subjected to a replicate test to calculate confidence intervals of 95% (95% CI). CC50 and EC50 values were determined for at least two independent experiments for each nucleoside analogue and a selectivity index (SI) also calculated, (SI = CC50/EC50). EC50 values for each replicate were used to perform an unpaired two-tailed t-test to determine significant differences between U937 cells expressing SAMHD1 wt or HD206-7AA mutant and THP-1 cells expressing Vpx or untransduced cells. P values of <0.005 were considered statistically significant.

HIV-1-GFP [2] = assay: Anti-HIV-1 activity in U937 cells transduced with wt SAMHD1 or HD206-7AA mutant; format: cell-based
Description: (§2) Antiviral assays were further performed in monocytoid cells transduced with YFP-expressing VLPs containing WT SAMHD1, HD206-7AA or Vpx. Briefly, U937 cells (6 × 10^5 cells/mL) were transduced with WT SAMHD1-YFP or HD206-7AA-YFP VLPs by spinoculation at 800 × g for 90 min in the presence of 1 μg/mL polybrene. Similarly, THP-1 cells (6 × 10^5 cells/mL) were transduced with Vpx-YFP VLPs by spinoculation at 800 × g for 90 min in the presence of 1 μg/mL polybrene. Cells were incubated at 37 °C in 5% CO2 and after 72 h, PMA^+ cells (6 × 10^5 cells/mL) were treated with 100 nM PMA and PMA^− cells (7.5 × 10^4 cells/mL) were left untreated. Cells were then incubated at 37 °C in 5% CO2 for 48 h. Nucleoside analogues were added at increasing concentrations (0–200 μM; except CFB, 0–1.6 μM) and cells were further incubated for 48 h. PMA^− cells were then infected with HIV-1-GFP by spinoculation at 800 × g for 90 min in the presence of 1 μg/mL polybrene, PMA^+ cells were infected with HIV-1-GFP in the presence of 1 μg/mL polybrene only. Cells were incubated for 72 h at 37 °C in 5% CO2 and then analysed by two-colour flow cytometry using a Fortessa X20 analyser (BD Biosciences). Data were analysed using the FlowJo software suite.
as §1, with “The cytotoxic concentration of nucleoside analogue that inhibits cell viability by 50% (CC50) and the effective concentration of nucleoside analogue that inhibits infection of cells by 50% (EC50) were calculated for each independent experiment by non-linear regression using GraphPad Prism v6.00 for Windows (GraphPad Software, San Diego, CA). Non-ambiguous” for “Non-ambiguous”

HIV-1-GFP [3] = assay: Anti-HIV-1 activity in THP-1 cells with or without Vpx transduction; format: cell-based
Description: as §2
as §1, with “The cytotoxic concentration of nucleoside analogue that inhibits cell viability by 50% (CC50) and the effective concentration of nucleoside analogue that inhibits infection of cells by 50% (EC50) were calculated for each independent experiment by non-linear regression using GraphPad Prism v6.00 for Windows (GraphPad Software, San Diego, CA). Non-ambiguous” for “Non-ambiguous”

[4] = Cytotoxicity, live cells by flow cytometry, H9 cells; format: cell-based; details: human
Description: (§3) H9, Jurkat and undifferentiated U937 and THP-1 (PMA^−) cells (6 × 10^5 cells/mL) were treated with increasing concentrations of nucleoside analogues (0–200 μM; except CFB, 0–1.6 μM) and incubated at 37 °C in 5% CO2 for 48 h. Medium was then replaced and cells were further incubated for 72 h. Non-dividing U937 and THP-1 (PMA^+) cells (6 × 10^5 cells/mL) were differentiated by addition of 100 nM phorbol-12-myristate-13-acetate (PMA^+) for 48 h and then treated with increasing concentrations of nucleoside analogues as described above. The percentage of live cells was determined by flow cytometry using Live/Dead fixable blue-fluorescent dyes (Invitrogen) and a Fortessa X20 analyser (BD Biosciences). Data were analysed using the FlowJo software suite.
as §1, with “The cytotoxic concentration of nucleoside analogue that inhibits cell viability by 50% (CC50) and the effective concentration of nucleoside analogue that inhibits infection of cells by 50% (EC50) were calculated for each independent experiment by non-linear regression using GraphPad Prism v6.00 for Windows (GraphPad Software, San Diego, CA). Non-ambiguous” for “Non-ambiguous”

[5] = Cytotoxicity, live cells by flow cytometry, Jurkat cells; format: cell-based; details: human
Description: as §3
as §1, with “The cytotoxic concentration of nucleoside analogue that inhibits cell viability by 50% (CC50) and the effective concentration of nucleoside analogue that inhibits infection of cells by 50% (EC50) were calculated for each independent experiment by non-linear regression using GraphPad Prism v6.00 for Windows (GraphPad Software, San Diego, CA). Non-ambiguous” for “Non-ambiguous”

[6] = Cytotoxicity, live cells by flow cytometry, U937 cells (PMA−/PMA+); format: cell-based; details: human
Description: as §3
as §1, with “The cytotoxic concentration of nucleoside analogue that inhibits cell viability by 50% (CC50) and the effective concentration of nucleoside analogue that inhibits infection of cells by 50% (EC50) were calculated for each independent experiment by non-linear regression using GraphPad Prism v6.00 for Windows (GraphPad Software, San Diego, CA). Non-ambiguous” for “Non-ambiguous”

U937 cells = assay: as above; format: cell-based; details: human, 48 h
Description: as §3
as §1, with “The cytotoxic concentration of nucleoside analogue that inhibits cell viability by 50% (CC50) and the effective concentration of nucleoside analogue that inhibits infection of cells by 50% (EC50) were calculated for each independent experiment by non-linear regression using GraphPad Prism v6.00 for Windows (GraphPad Software, San Diego, CA). Non-ambiguous” for “Non-ambiguous”

[7] = Cytotoxicity, live cells by flow cytometry, THP-1 cells (PMA−/PMA+); format: cell-based; details: human
Description: as §3
as §1, with “The cytotoxic concentration of nucleoside analogue that inhibits cell viability by 50% (CC50) and the effective concentration of nucleoside analogue that inhibits infection of cells by 50% (EC50) were calculated for each independent experiment by non-linear regression using GraphPad Prism v6.00 for Windows (GraphPad Software, San Diego, CA). Non-ambiguous” for “Non-ambiguous”

THP-1 cells = assay: as above; format: cell-based; details: human, 48 h
Description: as §3
as §1, with “The cytotoxic concentration of nucleoside analogue that inhibits cell viability by 50% (CC50) and the effective concentration of nucleoside analogue that inhibits infection of cells by 50% (EC50) were calculated for each independent experiment by non-linear regression using GraphPad Prism v6.00 for Windows (GraphPad Software, San Diego, CA). Non-ambiguous” for “Non-ambiguous”

in vitro = format: cell-based; details: human
Description: as §3
as §1, with “The cytotoxic concentration of nucleoside analogue that inhibits cell viability by 50% (CC50) and the effective concentration of nucleoside analogue that inhibits infection of cells by 50% (EC50) were calculated for each independent experiment by non-linear regression using GraphPad Prism v6.00 for Windows (GraphPad Software, San Diego, CA). Non-ambiguous” for “Non-ambiguous”

T1 sequence (Q9Y3Z3 115-626): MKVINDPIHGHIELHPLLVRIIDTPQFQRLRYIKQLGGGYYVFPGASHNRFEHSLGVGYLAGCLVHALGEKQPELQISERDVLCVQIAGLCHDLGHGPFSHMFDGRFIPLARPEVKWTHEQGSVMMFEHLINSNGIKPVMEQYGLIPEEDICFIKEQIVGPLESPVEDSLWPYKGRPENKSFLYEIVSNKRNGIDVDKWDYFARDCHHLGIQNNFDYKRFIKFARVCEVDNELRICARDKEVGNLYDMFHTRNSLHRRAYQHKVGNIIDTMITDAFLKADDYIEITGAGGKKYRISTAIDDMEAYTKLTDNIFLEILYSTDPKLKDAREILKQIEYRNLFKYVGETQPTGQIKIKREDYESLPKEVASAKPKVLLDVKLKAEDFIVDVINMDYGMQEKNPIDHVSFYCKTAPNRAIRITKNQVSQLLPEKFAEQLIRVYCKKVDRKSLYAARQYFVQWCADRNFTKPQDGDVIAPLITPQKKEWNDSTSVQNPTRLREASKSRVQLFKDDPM

Nc1nc(Cl)nc2c1ncn2[C@@H]1O[C@H](COP(=O)(O)OP(=O)(O)OP(=O)(O)O)[C@@H](O)[C@@H]1F [CFB-TP, Clofarabine triphosphate]
hydrolysis by SAMHD1 (substrate) (SAMHD1): substrate hydrolysed by SAMHD1 at a rate comparable to natural dNTP substrates

Nc1nc(NC2CC2)c2ncn([C@H]3C=C[C@@H](CO)C3)c2n1 [ABC]
EC50 (HIV-1-GFP [1]; Human immunodeficiency virus 1, THP-1, read-out: EC50 [95% CI], THP1 PMA+): 0.031 µM | EC50 (HIV-1-GFP [1]; Human immunodeficiency virus 1, THP-1, read-out: EC50 [95% CI], THP1 PMA−): 0.493 µM | EC50 (HIV-1-GFP [1]; Human immunodeficiency virus 1, U-937, read-out: EC50 [95% CI], U937 PMA+): 7.47 µM | EC50 (HIV-1-GFP [1]; Human immunodeficiency virus 1, U-937, read-out: EC50 [95% CI], U937 PMA−): 14.1 µM | fold increase of anti-HIV-1 activity in PMA+ over PMA− cells (HIV-1-GFP [1]; THP-1): 16 fold | SI, selectivity index CC50/EC50 (HIV-1-GFP [1]; THP-1 PMA+): > 6452 | SI, selectivity index CC50/EC50 (HIV-1-GFP [1]; THP-1 PMA−): > 406 | SI, selectivity index CC50/EC50 (HIV-1-GFP [1]; U937 PMA+): > 27 | SI, selectivity index CC50/EC50 (HIV-1-GFP [1]; U937 PMA−): > 14 | EC50 (HIV-1-GFP [2]; Human immunodeficiency virus 1, U-937, read-out: EC50 [95% CI], U937 PMA+, HD206/7AA+ population): 7.06 µM | EC50 (HIV-1-GFP [2]; Human immunodeficiency virus 1, U-937, read-out: EC50 [95% CI], U937 PMA+, SAMHD1+ population): 0.173 µM | EC50 (HIV-1-GFP [2]; Human immunodeficiency virus 1, U-937, read-out: EC50 [95% CI], U937 PMA−, HD206/7AA+ population): 22.1 µM | EC50 (HIV-1-GFP [2]; Human immunodeficiency virus 1, U-937, read-out: EC50 [95% CI], U937 PMA−, SAMHD1+ population): 17.5 µM | Fold (EC50 HD206/7AA vs SAMHD1) (HIV-1-GFP [2]; U937 PMA+): 41 fold | Fold (EC50 HD206/7AA vs SAMHD1) (HIV-1-GFP [2]; U937 PMA−): 1 fold | EC50 (HIV-1-GFP [3]; Human immunodeficiency virus 1, THP-1, read-out: EC50 [95% CI], THP1 PMA+, Vpx+): 7.05 µM | EC50 (HIV-1-GFP [3]; Human immunodeficiency virus 1, THP-1, read-out: EC50 [95% CI], THP1 PMA+, Vpx−): 0.038 µM | EC50 (HIV-1-GFP [3]; Human immunodeficiency virus 1, THP-1, read-out: EC50 [95% CI], THP1 PMA−, Vpx+): 0.622 µM | EC50 (HIV-1-GFP [3]; Human immunodeficiency virus 1, THP-1, read-out: EC50 [95% CI], THP1 PMA−, Vpx−): 0.459 µM | Fold (EC50 Vpx+ vs Vpx−) (HIV-1-GFP [3]; THP1 PMA+): 187 fold | Fold (EC50 Vpx+ vs Vpx−) (HIV-1-GFP [3]; THP1 PMA−): 1 fold | CC50 at 48 h [4]: > 200 µM | CC50 at 48 h [5]: > 200 µM | CC50 at 48 h [6]: > 200 µM | CC50 (U937 cells): > 200 µM | CC50 at 48 h [7]: > 200 µM | CC50 (THP-1 cells): > 200 µM | CC50 at 48 h (in vitro): > 200 µM

Nc1nc2c(ncn2COCCOP(=O)(O)OP(=O)(O)OP(=O)(O)O)c(=O)[nH]1 [ACV-TP, Aciclovir triphosphate]
allosteric activation of SAMHD1 (SAMHD1): allosteric activator of SAMHD1 with comparable efficiency to GTP | hydrolysis by SAMHD1 (substrate) (SAMHD1): non-hydrolysable
